One block for each compound: values may come before it. Activity calls are given as the source filed them.
Experiments:
[1] = target: T1, Mannose-6-phosphate isomerase (Homo sapiens, UniProt P34949); assay: human PMI inhibitors, high substrate, primary screen, biochemical, fluorescence intensity, high mannose 6-phosphate (AID 1220)
T1 sequence (P34949 whole entry): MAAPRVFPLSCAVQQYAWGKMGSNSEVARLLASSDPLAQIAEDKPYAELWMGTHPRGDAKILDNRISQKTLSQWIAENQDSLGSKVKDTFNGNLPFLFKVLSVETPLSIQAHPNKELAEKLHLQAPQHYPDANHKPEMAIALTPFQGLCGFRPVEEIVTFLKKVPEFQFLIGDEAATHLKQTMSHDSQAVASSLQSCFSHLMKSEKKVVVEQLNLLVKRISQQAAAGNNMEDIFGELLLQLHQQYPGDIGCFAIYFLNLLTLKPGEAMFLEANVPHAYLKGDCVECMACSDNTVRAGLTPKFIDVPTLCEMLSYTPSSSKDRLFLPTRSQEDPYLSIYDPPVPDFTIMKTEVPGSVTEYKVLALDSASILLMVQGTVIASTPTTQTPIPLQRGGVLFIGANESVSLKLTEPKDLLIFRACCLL

Caspase-3 = target: T2, Caspase-3 (Homo sapiens, UniProt P42574); format: functional;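 note: Dose-response selectivity test against caspase-3 for candidate inhibitors of sentrin-specific proteases (SENPs)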
T2 sequence (P42574 whole entry): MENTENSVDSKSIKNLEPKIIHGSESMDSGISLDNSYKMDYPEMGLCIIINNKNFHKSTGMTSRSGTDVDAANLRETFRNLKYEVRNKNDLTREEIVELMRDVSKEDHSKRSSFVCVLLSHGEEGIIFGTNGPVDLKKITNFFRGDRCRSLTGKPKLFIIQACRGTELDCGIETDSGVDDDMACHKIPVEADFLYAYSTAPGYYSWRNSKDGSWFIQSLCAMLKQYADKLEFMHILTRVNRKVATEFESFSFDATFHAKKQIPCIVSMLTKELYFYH

[2] = target: 5'-AMP-activated protein kinase catalytic subunit alpha-1 (Homo sapiens, UniProt Q13131); format: functional
5'-AMP-activated protein kinase catalytic subunit alpha-1, sequence (Q13131 whole entry): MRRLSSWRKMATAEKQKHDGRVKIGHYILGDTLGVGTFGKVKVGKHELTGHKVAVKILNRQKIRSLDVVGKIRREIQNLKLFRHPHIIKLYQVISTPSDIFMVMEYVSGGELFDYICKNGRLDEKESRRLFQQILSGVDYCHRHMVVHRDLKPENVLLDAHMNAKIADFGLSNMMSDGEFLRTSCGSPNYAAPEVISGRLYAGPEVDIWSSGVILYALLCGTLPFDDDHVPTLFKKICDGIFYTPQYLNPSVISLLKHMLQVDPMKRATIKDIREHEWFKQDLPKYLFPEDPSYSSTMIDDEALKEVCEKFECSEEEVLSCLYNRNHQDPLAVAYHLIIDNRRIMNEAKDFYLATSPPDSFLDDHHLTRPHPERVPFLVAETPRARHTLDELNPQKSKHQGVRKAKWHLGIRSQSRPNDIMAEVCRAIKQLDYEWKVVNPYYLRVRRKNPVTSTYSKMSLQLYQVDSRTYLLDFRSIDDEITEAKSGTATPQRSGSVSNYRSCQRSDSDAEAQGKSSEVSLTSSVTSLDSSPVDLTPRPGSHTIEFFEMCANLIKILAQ

Aurora kinase A = Aurora kinase A (Homo sapiens, UniProt O14965); format: functional;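 note: value from the Navigating the Kinome kinase panel profiling, panel entry STK6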
Aurora kinase A, sequence (O14965 whole entry): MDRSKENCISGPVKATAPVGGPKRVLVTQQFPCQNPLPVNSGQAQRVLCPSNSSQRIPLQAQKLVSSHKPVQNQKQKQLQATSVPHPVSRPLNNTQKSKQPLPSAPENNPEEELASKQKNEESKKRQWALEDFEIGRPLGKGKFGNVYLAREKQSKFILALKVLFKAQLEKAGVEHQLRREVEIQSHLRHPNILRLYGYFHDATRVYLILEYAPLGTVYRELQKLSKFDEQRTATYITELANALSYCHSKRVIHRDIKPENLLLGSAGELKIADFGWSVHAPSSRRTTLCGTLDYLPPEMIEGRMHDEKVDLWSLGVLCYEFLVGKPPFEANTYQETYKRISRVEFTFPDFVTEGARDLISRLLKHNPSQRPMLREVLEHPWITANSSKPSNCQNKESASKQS

[3] = target: High affinity nerve growth factor receptor (Homo sapiens, UniProt P04629); format: functional;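 note: NTRK1 tested as one member of a kinome-wide profiling panel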
High affinity nerve growth factor receptor, sequence (P04629 whole entry): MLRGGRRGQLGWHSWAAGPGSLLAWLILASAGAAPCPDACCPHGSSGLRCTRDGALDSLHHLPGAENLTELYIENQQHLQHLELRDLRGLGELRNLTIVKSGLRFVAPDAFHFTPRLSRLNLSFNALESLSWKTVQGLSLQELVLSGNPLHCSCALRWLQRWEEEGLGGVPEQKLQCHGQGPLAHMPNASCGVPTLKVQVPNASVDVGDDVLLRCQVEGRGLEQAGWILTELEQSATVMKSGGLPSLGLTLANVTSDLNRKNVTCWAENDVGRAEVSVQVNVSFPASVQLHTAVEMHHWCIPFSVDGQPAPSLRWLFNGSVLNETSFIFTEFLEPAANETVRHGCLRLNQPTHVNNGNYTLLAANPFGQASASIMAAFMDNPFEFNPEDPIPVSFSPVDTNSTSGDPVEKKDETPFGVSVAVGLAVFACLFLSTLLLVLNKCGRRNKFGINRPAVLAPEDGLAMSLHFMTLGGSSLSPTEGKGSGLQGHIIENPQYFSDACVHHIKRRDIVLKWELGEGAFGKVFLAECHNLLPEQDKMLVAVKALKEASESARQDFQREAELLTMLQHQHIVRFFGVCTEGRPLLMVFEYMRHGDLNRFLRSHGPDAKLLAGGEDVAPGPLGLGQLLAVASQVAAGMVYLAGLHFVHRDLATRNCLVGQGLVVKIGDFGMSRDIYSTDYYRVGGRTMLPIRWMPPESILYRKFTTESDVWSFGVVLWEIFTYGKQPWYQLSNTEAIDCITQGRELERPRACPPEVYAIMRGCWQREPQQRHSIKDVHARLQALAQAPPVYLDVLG

[4] = target: Non-receptor tyrosine-protein kinase TYK2 (Homo sapiens, UniProt P29597); format: functional
Non-receptor tyrosine-protein kinase TYK2, sequence (P29597 whole entry): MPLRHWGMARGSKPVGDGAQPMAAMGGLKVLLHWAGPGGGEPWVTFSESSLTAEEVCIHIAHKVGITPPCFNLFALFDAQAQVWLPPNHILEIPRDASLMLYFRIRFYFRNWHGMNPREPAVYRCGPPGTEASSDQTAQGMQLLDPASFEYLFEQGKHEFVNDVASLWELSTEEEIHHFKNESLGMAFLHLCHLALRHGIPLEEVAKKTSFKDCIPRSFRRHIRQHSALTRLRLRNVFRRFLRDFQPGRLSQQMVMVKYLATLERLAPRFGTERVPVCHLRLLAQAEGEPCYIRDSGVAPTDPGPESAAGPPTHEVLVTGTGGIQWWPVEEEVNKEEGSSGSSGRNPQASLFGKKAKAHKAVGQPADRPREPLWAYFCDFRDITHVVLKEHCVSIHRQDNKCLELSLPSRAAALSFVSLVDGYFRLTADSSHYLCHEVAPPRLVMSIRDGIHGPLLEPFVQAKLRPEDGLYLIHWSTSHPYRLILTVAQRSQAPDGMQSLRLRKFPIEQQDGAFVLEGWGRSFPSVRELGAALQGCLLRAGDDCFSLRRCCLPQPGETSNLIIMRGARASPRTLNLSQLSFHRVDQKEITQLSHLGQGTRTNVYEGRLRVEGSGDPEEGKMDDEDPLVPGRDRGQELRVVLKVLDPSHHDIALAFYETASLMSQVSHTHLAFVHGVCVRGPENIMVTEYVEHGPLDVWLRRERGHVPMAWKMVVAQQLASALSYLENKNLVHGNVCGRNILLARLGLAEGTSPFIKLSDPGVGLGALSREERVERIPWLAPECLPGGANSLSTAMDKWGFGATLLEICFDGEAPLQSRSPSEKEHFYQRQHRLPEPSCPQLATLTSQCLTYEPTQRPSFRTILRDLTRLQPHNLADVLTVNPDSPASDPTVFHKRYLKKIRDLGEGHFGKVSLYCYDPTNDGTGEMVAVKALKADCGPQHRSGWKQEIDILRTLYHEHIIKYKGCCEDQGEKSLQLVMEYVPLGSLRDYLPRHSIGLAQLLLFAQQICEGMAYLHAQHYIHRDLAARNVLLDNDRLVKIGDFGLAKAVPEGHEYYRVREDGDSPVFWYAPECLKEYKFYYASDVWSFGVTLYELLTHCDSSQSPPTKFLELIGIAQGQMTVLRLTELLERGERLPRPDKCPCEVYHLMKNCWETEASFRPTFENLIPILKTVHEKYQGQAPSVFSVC

[5] = target: MAP kinase-activated protein kinase 3 (Homo sapiens, UniProt Q16644); format: functional;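 note: value comes from a kinome-wide profiling panel in which MAPKAPK3 is one of the panel members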
MAP kinase-activated protein kinase 3, sequence (Q16644 whole entry): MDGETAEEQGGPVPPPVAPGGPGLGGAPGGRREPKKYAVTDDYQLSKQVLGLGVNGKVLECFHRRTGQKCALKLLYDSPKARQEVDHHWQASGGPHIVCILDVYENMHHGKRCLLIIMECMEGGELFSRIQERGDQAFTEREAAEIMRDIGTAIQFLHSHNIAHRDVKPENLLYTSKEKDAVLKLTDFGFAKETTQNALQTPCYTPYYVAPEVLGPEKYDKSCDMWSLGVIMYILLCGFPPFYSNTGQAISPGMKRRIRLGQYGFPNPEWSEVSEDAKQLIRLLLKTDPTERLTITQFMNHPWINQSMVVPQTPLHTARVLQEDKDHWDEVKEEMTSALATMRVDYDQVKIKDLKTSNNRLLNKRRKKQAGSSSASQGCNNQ

[6] = target: Cyclin-dependent kinase 1 (Homo sapiens, UniProt P06493); format: functional;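 note: Kinome-wide panel profiling, with the target listed as panel member CDC2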
Cyclin-dependent kinase 1, sequence (P06493 whole entry): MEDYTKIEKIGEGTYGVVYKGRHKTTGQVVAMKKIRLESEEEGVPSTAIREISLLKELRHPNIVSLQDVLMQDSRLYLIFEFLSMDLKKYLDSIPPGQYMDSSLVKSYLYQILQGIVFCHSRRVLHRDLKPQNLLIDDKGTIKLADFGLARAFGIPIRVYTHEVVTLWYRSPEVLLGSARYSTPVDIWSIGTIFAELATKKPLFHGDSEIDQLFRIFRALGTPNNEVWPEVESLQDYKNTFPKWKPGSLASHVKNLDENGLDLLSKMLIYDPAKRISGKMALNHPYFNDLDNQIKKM

[7] = target: Serine/threonine-protein kinase MRCK alpha (Homo sapiens, UniProt Q5VT25); format: functional
[8] = target: Macrophage colony-stimulating factor 1 receptor (Homo sapiens, UniProt P07333); format: functional;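 note: value comes from the Navigating the Kinome screening panel, CSF1R member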
Macrophage colony-stimulating factor 1 receptor, sequence (P07333 whole entry): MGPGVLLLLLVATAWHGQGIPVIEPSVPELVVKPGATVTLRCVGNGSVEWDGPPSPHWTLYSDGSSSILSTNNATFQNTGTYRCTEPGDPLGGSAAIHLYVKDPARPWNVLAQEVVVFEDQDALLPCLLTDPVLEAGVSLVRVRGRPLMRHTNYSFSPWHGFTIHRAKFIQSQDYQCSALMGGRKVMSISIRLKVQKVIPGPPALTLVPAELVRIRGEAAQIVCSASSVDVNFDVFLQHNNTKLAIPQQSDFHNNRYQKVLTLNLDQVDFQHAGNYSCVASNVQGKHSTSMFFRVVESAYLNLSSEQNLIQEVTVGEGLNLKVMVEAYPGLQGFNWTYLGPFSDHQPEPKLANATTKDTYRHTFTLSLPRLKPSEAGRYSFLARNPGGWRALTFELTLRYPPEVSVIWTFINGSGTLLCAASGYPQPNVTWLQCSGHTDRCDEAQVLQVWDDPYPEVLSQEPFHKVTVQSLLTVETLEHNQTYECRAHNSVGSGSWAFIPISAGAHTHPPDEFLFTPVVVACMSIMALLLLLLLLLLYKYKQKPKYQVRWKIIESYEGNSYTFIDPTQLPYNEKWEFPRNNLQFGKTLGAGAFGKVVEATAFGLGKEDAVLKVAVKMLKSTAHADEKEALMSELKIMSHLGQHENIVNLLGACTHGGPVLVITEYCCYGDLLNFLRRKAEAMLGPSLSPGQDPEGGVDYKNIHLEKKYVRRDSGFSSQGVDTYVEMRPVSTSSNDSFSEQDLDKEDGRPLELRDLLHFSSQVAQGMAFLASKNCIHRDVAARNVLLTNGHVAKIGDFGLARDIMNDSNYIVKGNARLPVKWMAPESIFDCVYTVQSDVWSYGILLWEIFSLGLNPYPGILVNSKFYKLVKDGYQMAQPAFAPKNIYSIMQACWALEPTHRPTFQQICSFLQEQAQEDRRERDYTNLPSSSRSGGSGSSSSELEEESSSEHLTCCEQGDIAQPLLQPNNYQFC

[9] = inhibition of K1F phage lysis, E. coli UTI89, bacterial capsule biogenesis inhibitors, alamar blue (AID 488966); format: functional
[10] = target: T3, Ubiquitin-conjugating enzyme E2 N (Homo sapiens, UniProt P61088); format: functional;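 note: Dose-response confirmation in a TR-FRET assay detecting UBC13-driven polyubiquitin chain formation, inhibition measured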
T3 sequence (P61088 whole entry): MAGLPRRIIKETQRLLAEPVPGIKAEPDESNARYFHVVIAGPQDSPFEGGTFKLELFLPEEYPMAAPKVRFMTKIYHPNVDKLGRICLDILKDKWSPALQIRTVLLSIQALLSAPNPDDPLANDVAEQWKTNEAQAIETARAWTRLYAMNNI

Insulin-degrading enzyme = target: T4, Insulin-degrading enzyme (Homo sapiens, UniProt P14735); assay: activators of recombinant IDE enzyme, dose response, counter-screen for IDE activator project, biochemical, fluorescence polarization (AID 588681)
T4 sequence (P14735 whole entry): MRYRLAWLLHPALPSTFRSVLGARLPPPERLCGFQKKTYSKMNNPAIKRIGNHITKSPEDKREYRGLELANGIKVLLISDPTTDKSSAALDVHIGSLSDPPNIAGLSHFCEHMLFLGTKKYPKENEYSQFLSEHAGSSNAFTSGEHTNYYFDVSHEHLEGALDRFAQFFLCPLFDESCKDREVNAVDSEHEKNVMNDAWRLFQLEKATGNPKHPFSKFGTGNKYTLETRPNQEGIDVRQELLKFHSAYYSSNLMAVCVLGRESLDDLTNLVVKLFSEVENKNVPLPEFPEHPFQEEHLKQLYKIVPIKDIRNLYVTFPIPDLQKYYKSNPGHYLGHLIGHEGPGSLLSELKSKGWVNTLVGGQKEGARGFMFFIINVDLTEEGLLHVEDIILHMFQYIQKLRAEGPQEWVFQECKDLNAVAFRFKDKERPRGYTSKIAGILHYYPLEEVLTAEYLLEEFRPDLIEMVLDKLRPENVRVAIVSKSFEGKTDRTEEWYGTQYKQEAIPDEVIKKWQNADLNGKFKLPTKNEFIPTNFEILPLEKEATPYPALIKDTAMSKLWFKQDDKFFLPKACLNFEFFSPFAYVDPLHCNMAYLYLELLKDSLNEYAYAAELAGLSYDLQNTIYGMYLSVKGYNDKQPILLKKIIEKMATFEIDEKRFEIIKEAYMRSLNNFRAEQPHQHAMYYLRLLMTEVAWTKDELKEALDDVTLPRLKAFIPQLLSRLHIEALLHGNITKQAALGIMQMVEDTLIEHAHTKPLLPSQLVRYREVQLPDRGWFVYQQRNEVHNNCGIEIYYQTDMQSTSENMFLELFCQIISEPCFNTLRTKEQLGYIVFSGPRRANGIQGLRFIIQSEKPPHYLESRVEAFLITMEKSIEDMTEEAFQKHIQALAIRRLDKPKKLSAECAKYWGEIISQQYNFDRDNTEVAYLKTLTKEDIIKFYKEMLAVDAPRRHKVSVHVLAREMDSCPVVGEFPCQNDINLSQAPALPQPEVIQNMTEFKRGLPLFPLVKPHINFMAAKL

HEK293 = assay: optical interference in Abeta FP readout, dose response, artefact control for IDE activator project, biochemical, fluorescence polarization (AID 588442); format: functional, cell-based; conditions: Homo sapiens
[11] = target: Small ubiquitin-related modifier 1 (Homo sapiens, UniProt P63165); assay: inhibitors of SUMO1 partner interactions, dose response, biochemical, FRET (AID 624383); format: functional; conditions: read-out: IC50_Mean
Small ubiquitin-related modifier 1, sequence (P63165 whole entry): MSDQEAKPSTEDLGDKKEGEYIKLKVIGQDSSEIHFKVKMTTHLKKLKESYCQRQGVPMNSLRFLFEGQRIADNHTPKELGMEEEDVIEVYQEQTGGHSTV

SMILES: CCC(C)NC(=O)c1c(N)n(CCCOC)c2nc3ccccc3nc12 (stereo not given)
IC50 [1]: > 50 µM (not active)
IC50 (Caspase-3): 6.15 µM (active)

Ki [2]: 2.51 µM (active)
Ki (Aurora kinase A): 5.01 µM (active)
Ki [3]: > 2.51 µM (inactive)
Ki [4]: 2 µM (active)
Ki [5]: 0.631 µM (active)
Ki [6]: 0.631 µM (active)
Ki [7]: 0.316 µM (active)
Ki [8]: > 2.51 µM (inactive)
SMILES: CC(=NNC(=N)N)c1cc(NC(=O)NCCCCCCNC(=O)Nc2cc(C(C)=NNC(=N)N)cc(C(C)=NNC(=N)N)c2)cc(C(C)=NNC(=N)N)c1

SMILES: Cc1cc(N)c2cc(NC(=O)/C=C/c3ccccc3Cl)ccc2n1
IC50 [9]: > 75 µM (active)
IC50 [10]: 3.5 µM (active)
EC50 (Insulin-degrading enzyme): > 54.7 µM (inactive)
EC50 (HEK293): > 54.7 µM (inactive)
IC50 [11]: 7.51 µM (active)

— ChEMBL document CHEMBL1201862, “PubChem BioAssay data set” (2004)
